The NIST ThermoML archive (doi:10.1016/j.tca.2013.04.003)
Numbers after ± are expanded uncertainties.

Assay: molar enthalpy of vaporization or sublimation
Details: Liquid, TGA

Compound	molar enthalpy (432.1 K) [kcal/mol]	molar enthalpy (432.4 K) [kcal/mol]
CCn1cc[n+](C)c1.[Cl-] [1-ethyl-3-methylimidazolium chloride]	30.3 ± 0.717	
CCCCCCn1cc[n+](C)c1.[Cl-] [1-hexyl-3-methylimidazolium chloride]		34.4 ± 0.717
